Measured values taken from US12466819B2, “Tricyclic compounds with OMA1/OPA1 modulatory properties” (712 North Inc., priority 2019, dated 2025).
“Also recorded” adds a separate entry of the source. Where two headings read alike, the source gives them in different places.

Experiments:
[1] = biological target: T1, OMA1 protease (OPA1 cleavage) (Mus musculus, UniProt Q9D8H7); experiment: OPA1 cleavage in Neuro2A cells by OPA1 Western blotting; format: cell-based; settings: 100 μM sorafenib; for OPA1 cleavage after 30 minutes: 5 μM CCCP, 1 μM valinomycin; for OPA1 cleavage after 3 hours: 100 μM trichostatin A
T1 construct: endogenous in cells; host or cells: Neuro2A cells
T1 sequence (Q9D8H7 140-521): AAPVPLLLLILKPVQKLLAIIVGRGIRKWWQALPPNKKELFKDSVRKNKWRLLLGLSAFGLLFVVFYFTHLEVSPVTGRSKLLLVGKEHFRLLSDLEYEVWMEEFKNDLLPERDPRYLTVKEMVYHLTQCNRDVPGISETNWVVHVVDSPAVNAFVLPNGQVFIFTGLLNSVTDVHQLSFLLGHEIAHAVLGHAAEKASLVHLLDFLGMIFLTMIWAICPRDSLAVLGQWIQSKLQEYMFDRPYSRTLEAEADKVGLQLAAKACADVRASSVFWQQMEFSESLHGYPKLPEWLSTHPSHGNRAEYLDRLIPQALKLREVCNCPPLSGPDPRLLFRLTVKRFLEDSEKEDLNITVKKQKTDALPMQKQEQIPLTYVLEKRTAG
Description: FIG. 1. A: The YME1L1 protease regulates the OPA1 ratios under physiological conditions (a). The OMA1 protease converts all OPA1 isoforms to S-OPA1 under conditions broadly defined as stress conditions (b). […] OMA1 knock-down could prevent OPA1 hydrolyses in these experiments. C: Quantification of OMA1 protein levels in Western blots upon OMA1 knock-down (mean±S.D.; p≤0.05; n=3). D: Different chemicals and combinations of chemicals altered the OPA1 ratios in 293T cells. E: Neuro2A cells were treated with the indicated agents for 30 minutes or 3 hours, respectively.
(§1) A nonlimiting example of a method of testing compounds for their efficacy to induce OPA1-cleavage and/or OMA1 activation is provided in FIG. 1, for which human 293T cells or mouse Neuro2A cells were treated with different agents and subsequently tested for OPA1-hydrolysis by Western blotting. […] OPA1 cleavage in these experiments is OMA1 dependent, because knock-down of the protease preserved L-OPA1 (FIG. 1B & 1C).
Another example is provided in FIG. 1E, for which Neuro2A cells were treated with different reagents for 30 minutes or 3 hours prior to the assessment of OPA1 by Western blotting. Some compounds acted faster while others were slower in altering the OPA1 ratios. […] Trichostatin A had no effect even after 3 hours of treatment. […] In certain embodiments, a pharmaceutical composition comprising an effective amount of sorafenib or a derivate, a prodrug or a pharmaceutical acceptable salt thereof and an effective amount of temozolomide or a derivate, a prodrug or a pharmaceutical acceptable salt thereof is administered to a subject with cancer.

[2] = biological target: T2, OMA1 protease (OPA1 cleavage) (Homo sapiens, UniProt Q96E52); experiment: OPA1 cleavage / OMA1 activation in 293T cells by OPA1 Western blotting; format: cell-based; settings: for critical CCCP concentration (threshold-level) for L-OPA1 cleavage after preincubation with compound: 30 μM compound for 60 minutes; for OPA1 cleavage by compound alone, 100 μM: 100 μM (up to 100 μM for VI); for OPA1 cleavage with compound plus 1 μM CCCP: 60 minutes compound (30 μM MMP2/9 inhibitor IV, 300 μM temozolomide, 100 μM amoxapine), then 1 μM CCCP for 30 minutes
T2 construct: endogenous in cells; host or cells: 293T cells
T2 sequence (Q96E52 144-524): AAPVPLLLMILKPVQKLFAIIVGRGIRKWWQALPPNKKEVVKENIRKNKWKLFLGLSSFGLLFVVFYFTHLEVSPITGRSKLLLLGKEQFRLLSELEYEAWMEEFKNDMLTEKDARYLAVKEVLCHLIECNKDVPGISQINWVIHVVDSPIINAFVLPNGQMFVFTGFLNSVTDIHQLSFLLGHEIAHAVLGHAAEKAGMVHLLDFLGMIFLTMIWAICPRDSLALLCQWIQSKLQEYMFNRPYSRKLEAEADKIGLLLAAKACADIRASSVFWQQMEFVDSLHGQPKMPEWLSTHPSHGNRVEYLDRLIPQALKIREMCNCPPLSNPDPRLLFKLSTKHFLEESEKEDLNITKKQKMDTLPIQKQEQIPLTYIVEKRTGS
Procedure: FIG. 6. A: 293T cells were treated with 0 μM, 1 μM, 2 μM, 3 μM, 4 μM, or 5 μM CCCP for 30 minutes after which OPA1 was analyzed by Western blotting. […] E: OPA1 cleavage in Neuro2A cells treated with 30 μM of the indicated agents for 90 minutes (60 min preincubation plus 30 min of CCCP).
FIG. 7. Compounds of present invention can lower CCCP-levels for OMA1 activation gauged by OPA1 cleavage in Western blots. A-C: 293T cells were treated with the denoted concentrations of compound VII, IV and V for 60 minutes before CCCP was added for an additional 30 minutes. D-E: 293T cells were treated with the denoted concentrations of compound VII, IV and V for 6 hours before CCCP was added for an additional 30 minutes.
FIG. 11. A: A likely binding pose of a compound of present invention illustrates aspects of the drug-target interaction. B: 293T cells were treated with the denoted concentrations of compound for 90 minutes before cells were harvested and analyzed by OPA1 Western blotting. C: 293T cells were treated with the denoted concentrations of compound VI for 60 minutes and another 30 minutes with 1 μM CCCP before cells were harvested and analyzed by OPA1 Western blotting.
as §1
A nonlimiting example illustrates specific features of certain compounds disclosed herein and teaches how potency of such compounds can be further improved. To this end, compound were analyzed for their potential to lower threshold-levels for OPA1 cleavage and/or OMA1 activation using the methods described in Example 3. In one example, L-OPA1 was cleaved in untreated 293T cells at concentrations ≥5 μM CCCP (FIG. 6A, top panel). […] Preincubation with 30 μM MMP2 inhibitor II (CAS #869577-51-5) lowered the threshold-level even further to about 1 μM CCCP (FIG. 6C, bottom panel). The skilled artisan can recognize how (and the not-so-skilled artisan certainly appreciates that) substitutions and modifications of the thiirane-opposed end of the molecule increased potency.

[3] = test system: mitochondrial membrane potential Δψ; experiment: TMRE live-cell assay in 293T cells; settings: for impact on mitochondrial membrane potential Δψ (TMRE signal): overnight (18 hours), different compound concentrations
Procedure: (§2) The mitochondrial inner membrane potential Δψ was measured with a cellular TMRE-assay, in which a reduction of Δψ results in a reduced TMRE signal (see insert in A). […] A: Vehicle only. […] D: compound VII. E: compound IV. F: compound V.
(§3) It is well established in the art that CCCP can lower the mitochondrial membrane potential Δψ. […] 293T cells were cultured overnight with different compound concentrations after which TMRE fluorescence was measured with a fluorescence plate-reader (FIG. 10).

[4] = test system: mitochondrial membrane potential Δψ
Procedure: as §2, §3

OMA1 = biological target: T3, OMA1 (Homo sapiens, UniProt Q96E52); experiment: Luciferase-based cellular reporter of enzymatic OMA1 activity in 293T cells; format: cell-based; settings: 293T reporter cells; for OMA1 activation without stress-stimulus at 40 μM: overnight, no CCCP or valinomycin
T3 construct: 293T cells stably transfected with the reporter enzyme were incubated with increasing concentrations of a compound and 30 nM valinomycin; endogenous in cells; host or cells: 293T cells stably transfected with a luciferase-based reporter enzyme (only the reporter is transfected, not OMA1)
T3 sequence (Q96E52 144-524): T2 sequence (Q96E52 144-524)
Procedure: FIG. 8. 293T cells expressing a luciferase-based cellular reporter were incubated for 1 hour with increasing concentrations of the denoted compounds in cell culture media with 30 nM valinomycin before luciferase substrate was added and light emission measured. OMA1 activity decreases the light signal of the reporter in this assay. A: Vehicle only. […] C: amoxapine. D: compound VII. E: compound IV. F: compound V.
FIG. 9. 293T cells expressing a luciferase-based cellular reporter were incubated overnight with increasing concentrations of the denoted compounds. Luciferase substrate was added the next day and light emission measured. A: Vehicle only. […] C: amoxapine. D: compound VII. E: compound IV. F: compound V.
The following non-limiting examples illustrate some aspects of the mechanism of action of the compounds disclosed herein. An alternative method of measuring enzymatic OMA1 activity makes use of a luciferase-based cellular reporter, which can be transiently or stably expressed in eukaryotic cells. In this assay, OMA1 cleaves the reporter enzyme upon activation and thereby obliterates the luciferase signal. 293T cells stably transfected with the reporter enzyme were incubated with increasing concentrations of a compound and 30 nM valinomycin. Valinomycin is known in the art to induce OPA1 cleavage (see, for example, Head B., et al. “Inducible proteolytic inactivation of OPA1 mediated by the OMA1 protease in mammalian cells.” J Cell Biol. 2009; 187(7):959-66, as well as FIG. 1E). […] This specific example illustrates how compounds of present invention can activate OMA1 under conditions that would otherwise not lead to OMA1 activation. This example also provides an independent validation of the results obtained by Western blotting.
Incubation time is a variable of OMA1 activation for certain compounds (see, for example, sorafenib in FIG. 1E). To investigate whether compounds of present disclosure would activate OMA1 in the absence of a stress-stimulus such as CCCP or valinomycin, reporter cells were incubated with increasing compound concentrations overnight (FIG. 9). […]

[5] = 293T cells, then CCCP for another 30 minutes
[6] = 293T cells, 90 minutes, absence of CCCP
[7] = cells treated 60 minutes with compound, then CCCP for another 30 minutes
[8] = 293T cells, pre-incubation of 6 hours before CCCP for an additional 30 minutes

N#CC(C#N)=NNc1cccc(Cl)c1 [CCCP]
OPA1 cleavage after 30 minutes [1]: enough to induce OPA1 cleavage | OPA1 cleavage by 1 μM CCCP alone ([2]; 293T cells, 1 μM CCCP, 30 minutes): did not induce OPA1 cleavage | L-OPA1 cleavage by 10 μM CCCP ([2]; 293T cells, 10 μM CCCP, 30 minutes): resulted in L-OPA1 cleavage | CCCP concentration at which L-OPA1 was cleaved ([2]; untreated 293T cells, CCCP 30 minutes): ≥ 5 µM | TMRE signal with 0.6 μM CCCP ([3]; 0.6 μM CCCP): significantly reduced the TMRE signal

O=S(=O)(CC1CS1)c1ccc(Oc2ccccc2)cc1 (stereo not drawn) [MMP2/9 inhibitor IV]
impact on mitochondrial membrane potential Δψ (TMRE signal) [4]: only little impact on Δψ | critical CCCP concentration (threshold-level) for L-OPA1 cleavage after preincubation with compound [2, 5]: about 2 μM | OPA1 cleavage by compound alone, 30 μM ([2]; 293T cells, 30 μM, 90 minutes, absence of CCCP): did not induce OPA1 cleavage | OPA1 cleavage by compound alone, 100 μM [2, 6]: no effects on L-OPA1 | OPA1 cleavage with compound plus 1 μM CCCP ([2]; 293T cells): led to OPA1 cleavage

CC(/C=C/C(=O)NO)=C\[C@@H](C)C(=O)c1ccc(N(C)C)cc1 [Trichostatin A, trichostatin A]
OPA1 cleavage after 3 hours [1]: no effect

C=CCSc1ccc2c(c1)C(=O)Nc1ccccc1O2 [IV, 2-(allylthio)dibenzo[b,f][1,4]oxazepin-11(10H)-one]
impact on mitochondrial membrane potential Δψ (TMRE signal) [3]: only little impact on Δψ

CS(=O)(=O)Nc1ccc(Oc2ccc(S(=O)(=O)CC3CO3)cc2)cc1 (stereo not drawn) [MMP2 inhibitor II]
critical CCCP concentration (threshold-level) for L-OPA1 cleavage after preincubation with compound [2, 5]: about 1 μM | effective dose (OPA1 cleavage) [2, 7]: about 30 μM

O=C1Nc2ccccc2Oc2ccc(S(=O)(=O)CC3CS3)cc21 (stereo not drawn) [Compound VI]
conversion of L-OPA1 isoforms at 300 nM ([2]; 293T cells, 300 nM compound, presence of 1 μM CCCP): fully convert all L-OPA1 isoforms | OPA1 cleavage by compound alone, 100 μM [2, 6]: did not induce OPA1 cleavage | effective dose (OPA1 cleavage) ([2]; 293T cells, 60 minutes compound, another 30 minutes with 1 μM CCCP): 300 nM | effective dose better than compound IV ([2]; 293T cells, with CCCP): 10 times | more potent in inducing OPA1 hydrolysis than MMP2/9 inhibitor IV or amoxapine ([2]; 293T cells, with CCCP): 100 times

O=C1Nc2ccccc2Oc2ccc(S(=O)(=O)CC3CO3)cc21 (stereo not drawn) [Compound V]
efficacy in OPA1 cleavage in the presence of CCCP ([2]; 293T cells, 60 minutes compound, then CCCP 30 minutes): some efficacy; also recorded: overall little activity | OPA1 cleavage at the tested concentrations after extended pre-incubation [2, 8]: did result in OPA1 cleavage | potency (effective dose) after extended pre-incubation [2, 8]: about 1 μM | impact on mitochondrial membrane potential Δψ (TMRE signal) [3]: only little impact on Δψ

Clc1ccc2c(c1)C(N1CCNCC1)=Nc1ccccc1O2 [amoxapine]
OPA1 cleavage by compound alone, 100 μM [2, 6]: no effect on OPA1 cleavage; also recorded: no perceptible effects | OPA1 cleavage with compound plus 1 μM CCCP ([2]; 293T cells): OPA1 cleavage was observed | impact on mitochondrial membrane potential Δψ (TMRE signal) [3]: only little impact on Δψ | OMA1 activation without stress-stimulus at 40 μM (OMA1): OMA1 activation was noted

CC(C)[C@@H]1NC(=O)[C@H](C)OC(=O)[C@@H](C(C)C)NC(=O)[C@@H](C(C)C)OC(=O)[C@H](C(C)C)NC(=O)[C@H](C)OC(=O)[C@@H](C(C)C)NC(=O)[C@@H](C(C)C)OC(=O)[C@H](C(C)C)NC(=O)[C@H](C)OC(=O)[C@@H](C(C)C)NC(=O)[C@@H](C(C)C)OC1=O [valinomycin]
OPA1 cleavage after 30 minutes [1]: enough to induce OPA1 cleavage | effect of 30 nM valinomycin alone on reporter signal (OMA1; 1 hour, 30 nM valinomycin, vehicle only): only little effects

CNC(=O)c1cc(Oc2ccc(NC(=O)Nc3ccc(Cl)c(C(F)(F)F)c3)cc2)ccn1 [sorafenib]
OPA1 cleavage after 30 minutes [1]: only little effect | OPA1 cleavage after 3 hours [1]: L-OPA1 was completely converted

C=CCSc1ccc2c(c1)C(N1CCNCC1)=Nc1ccccc1O2 [VII]
OPA1 cleavage at the tested concentrations after extended pre-incubation [2, 8]: did result in OPA1 cleavage | effective dose (OPA1 cleavage) [2, 7]: about 10 μM | increase of potency compared to amoxapine ([2]; from effective doses in 293T cells): about 3 fold | impact on mitochondrial membrane potential Δψ (TMRE signal) [3]: only little impact on Δψ | OMA1 activation without stress-stimulus at 40 μM (OMA1): OMA1 activation was noted
